For 7 compounds, IC50 and viability, T/C results are on record in PubChem BioAssay AID2060610 (Molecular Pharmacology Branch, DTP, NCI, 2025).

The term IC50 denotes the concentration that inhibits the measured activity by half. One may read the viability, T/C as the ratio of treated to control.

Several values for one entry are separate records, joined by “and”; a condition that tells them apart may be missing. Equal values may be shown once. A value given as a limit tells only on which side of the number the result lay.

The assay concerns 616215-338-R-J1-PDC complex spheroids, viability % test/control. Put plainly: Anticancer human tumor 616215-338-R-J1-PDC patient-derived colon adenocarcinoma cell line growth inhibition [CLK]. The following applies: for viability, T/C: stronger effect = lower value. The essentials:
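Multi-cell-type spheroids combined patient-derived tumor cells with HUVEC endothelial cells and human mesenchymal stem cells. Paired agents were dosed in half-log steps down from about clinical Cmax, or from 10 microM where Cmax was unknown.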

[1] abbreviates: curve of first compound, second compound 0.0316 µM.
[2] abbreviates: curve of first compound, second compound 0.1 µM.
Setting [3] is: curve of first compound, second compound 0.316 µM.
The mark [4] stands for this setting: curve of first compound, second compound 1 µM.
The mark [5] stands for this setting: curve of first compound, second compound 3.16 µM.
Setting [6] is: curve of first compound, second compound 10 µM.
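Further: spheroids exposed to agents for 7 days.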
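Wherever viability, T/C is given: 100% = DMSO vehicle wells.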

Consider `C=CC(=O)Nc1cc(Nc2nccc(-c3cn(C)c4ccccc34)n2)c(OC)cc1N(C)CCN(C)C` + CN1CCN(c2cc(C(=O)Nc3cc4cc(-c5cnn(C)c5)ccc4cn3)ccn2)CC1, for which the IC50 under setting [1] is above 300 nM; the half-maximal inhibitory concentration (IC50) under setting [2] is above 300 nM; the IC50 under setting [3] was below 0.949 nM; the half-maximal inhibitory concentration (IC50) under setting [4] was below 0.949 nM; the concentration for half-maximal inhibition (IC50) under setting [5] was below 0.949 nM; the IC50 under setting [6] was below 0.949 nM. For the same compound, the viability, T/C reads like this: (second compound 0.0316 µM, first compound 0.000949 µM) 104%; (second compound 0.0316 µM, first compound 0.003 µM) 102%; (second compound 0.0316 µM, first compound 0.00949 µM) 93.5%; (second compound 0.0316 µM, first compound 0.03 µM) 103%; (second compound 0.0316 µM, first compound 0.0949 µM) 107%; (second compound 0.0316 µM, first compound 0.3 µM) 107%. Further, the viability, T/C by setting is: (second compound 0.1 µM, first compound 0.000949 µM) 125%; (second compound 0.1 µM, first compound 0.003 µM) 114%; (second compound 0.1 µM, first compound 0.00949 µM) 110%; (second compound 0.1 µM, first compound 0.03 µM) 111%; (second compound 0.1 µM, first compound 0.0949 µM) 97.3%; (second compound 0.1 µM, first compound 0.3 µM) 79.2%. Besides, the viability, T/C is 30.5% (second compound 0.316 µM, first compound 0.000949 µM); 35.5% (second compound 0.316 µM, first compound 0.003 µM); 37% (second compound 0.316 µM, first compound 0.00949 µM); 25.2% (second compound 0.316 µM, first compound 0.03 µM); 24.5% (second compound 0.316 µM, first compound 0.0949 µM); 20.4% (second compound 0.316 µM, first compound 0.3 µM). Besides, the viability, T/C by setting is: (second compound 1 µM, first compound 0.000949 µM) 0.17%; (second compound 1 µM, first compound 0.003 µM) 0.18%; (second compound 1 µM, first compound 0.00949 µM) 1.87%; (second compound 1 µM, first compound 0.03 µM) 0.19%; (second compound 1 µM, first compound 0.0949 µM) 0.34%; (second compound 1 µM, first compound 0.3 µM) 1.79%. The viability, T/C was 0.2% (second compound 3.16 µM, first compound 0.000949 µM); 0.16% (second compound 3.16 µM, first compound 0.003 µM); 0.17% (second compound 3.16 µM, first compound 0.00949 µM); 0.17% (second compound 3.16 µM, first compound 0.03 µM); 1.76% (second compound 3.16 µM, first compound 0.0949 µM); 1.73% (second compound 3.16 µM, first compound 0.3 µM). Also, the viability, T/C is 0.28% (second compound 10 µM, first compound 0.000949 µM); 0.23% (second compound 10 µM, first compound 0.003 µM); 0.25% (second compound 10 µM, first compound 0.00949 µM); 0.24% (second compound 10 µM, first compound 0.03 µM); 0.22% (second compound 10 µM, first compound 0.0949 µM); 0.24% (second compound 10 µM, first compound 0.3 µM).

Turning to `CCc1c2c(nc3ccc(O)cc13)-c1cc3c(c(=O)n1C2)COC(=O)[C@]3(O)CC` + CN1CCN(c2cc(C(=O)Nc3cc4cc(-c5cnn(C)c5)ccc4cn3)ccn2)CC1, the IC50 by setting is: under setting [1], 9.64 nM; under setting [2], 3.61 nM; under setting [3], below 3.16 nM; under setting [4], below 3.16 nM; under setting [5], below 3.16 nM; under setting [6], below 3.16 nM. Moreover, the viability, T/C was 98.2% (second compound 0.0316 µM, first compound 0.00316 µM); 42.2% (second compound 0.0316 µM, first compound 0.01 µM); 32.1% (second compound 0.0316 µM, first compound 0.0316 µM); 18% (second compound 0.0316 µM, first compound 0.1 µM); 12.9% (second compound 0.0316 µM, first compound 0.316 µM); 4.92% (second compound 0.0316 µM, first compound 1 µM). The viability, T/C by setting is: (second compound 0.1 µM, first compound 0.00316 µM) 50.8%; (second compound 0.1 µM, first compound 0.01 µM) 40.2%; (second compound 0.1 µM, first compound 0.0316 µM) 19.1%; (second compound 0.1 µM, first compound 0.1 µM) 13.1%; (second compound 0.1 µM, first compound 0.316 µM) 14.1%; (second compound 0.1 µM, first compound 1 µM) 1.26%. The viability, T/C was 34.2% (second compound 0.316 µM, first compound 0.00316 µM); 17.8% (second compound 0.316 µM, first compound 0.01 µM); 13.5% (second compound 0.316 µM, first compound 0.0316 µM); 8.84% (second compound 0.316 µM, first compound 0.1 µM); 1.45% (second compound 0.316 µM, first compound 0.316 µM); 1.92% (second compound 0.316 µM, first compound 1 µM). Besides, the viability, T/C is 0.13% (second compound 1 µM, first compound 0.00316 µM); 0.13% (second compound 1 µM, first compound 0.01 µM); 3.09% (second compound 1 µM, first compound 0.0316 µM); 0.08% (second compound 1 µM, first compound 0.1 µM); 0.06% (second compound 1 µM, first compound 0.316 µM); 1.66% (second compound 1 µM, first compound 1 µM). The viability, T/C is, setting by setting: (second compound 3.16 µM, first compound 0.00316 µM) 0.07%; (second compound 3.16 µM, first compound 0.01 µM) 0.12%; (second compound 3.16 µM, first compound 0.0316 µM) 1.53%; (second compound 3.16 µM, first compound 0.1 µM) 0.09%; (second compound 3.16 µM, first compound 0.316 µM) 3.53%; (second compound 3.16 µM, first compound 1 µM) 4.86%. Moreover, the viability, T/C is 0.08% (second compound 10 µM, first compound 0.00316 µM); 0.13% (second compound 10 µM, first compound 0.01 µM); 0.18% (second compound 10 µM, first compound 0.0316 µM); 0.13% (second compound 10 µM, first compound 0.1 µM); 3.18% (second compound 10 µM, first compound 0.316 µM); 1.61% (second compound 10 µM, first compound 1 µM).

As for `C=C(F)C(=O)N1CCN(c2nc(OCC3CCCN3C)nc3c2CCN(c2cccc4cccc(Cl)c24)C3)CC1CC#N` (centres undefined), the viability, T/C (compound 0.0316 µM) was 101% and 104%; the viability, T/C (compound 0.1 µM) was 99.9% and 107%; the viability, T/C (compound 0.316 µM) was 96.3% and 110%; the viability, T/C (compound 1 µM) was 93.6% and 106%; the viability, T/C (compound 3.16 µM) is 116% and 114%; the viability, T/C (compound 10 µM) was 9.79% and 0.24%. Besides, the IC50 (curve of compound) is 6030 nM and 5890 nM.

As for `CNC(=O)c1ccc(Nc2nc(OC3CCCC3)c3c(-c4ccc5nc(C)oc5c4)c[nH]c3n2)c(OC)c1`, the viability, T/C is 90.7% [middle of 12 runs] (compound 0.0316 µM); 55.7% [middle of 12 runs] (compound 0.1 µM); 44.2% [middle of 12 runs] (compound 0.316 µM); 45.1% [middle of 12 runs] (compound 1 µM); 42.3% [middle of 12 runs] (compound 3.16 µM); 40.3% [middle of 12 runs] (compound 10 µM). The 50% inhibitory concentration (IC50) (compound alone, run of 08/01/2023) is 177 nM [middle of 12 runs].

On to `CCc1c2c(nc3ccc(O)cc13)-c1cc3c(c(=O)n1C2)COC(=O)[C@]3(O)CC`, for which the viability, T/C by setting is: (compound 0.00316 µM) 110% and 111%; (compound 0.01 µM) 69.5% and 63.4%; (compound 0.0316 µM) 36.6% and 33.2%; (compound 0.1 µM) 17.5% and 24.2%; (compound 0.316 µM) 11% and 16.1%; (compound 1 µM) 5.51% and 7.45%. In addition, the 50% inhibitory concentration (IC50) (curve of compound) is 19.8 nM and 17.4 nM.

Take `O=C(c1cc(Cc2n[nH]c(=O)c3ccccc23)ccc1F)N1CCN(C(=O)C2CC2)CC1`: the viability, T/C was 96.4% and 102% (compound 0.0316 µM); 96.1% and 94.5% (compound 0.1 µM); 87.9% and 96.6% (compound 0.316 µM); 88.2% and 93.6% (compound 1 µM); 106% and 99.5% (compound 3.16 µM); 97.4% and 99.5% (compound 10 µM). Moreover, the IC50 (curve of compound) was above 10000 nM.

In the case of `CCCS(=O)(=O)Nc1ccc(F)c(C(=O)c2c[nH]c3ncc(-c4ccc(Cl)cc4)cc23)c1F`, the viability, T/C reads like this: (compound 0.0316 µM) 22.5% and 95.7%; (compound 0.1 µM) 33.6% and 96.8%; (compound 0.316 µM) 104% and 98.2%; (compound 1 µM) 96% and 95.1%; (compound 3.16 µM) 29.5% and 104%; (compound 10 µM) 0.01% and 24.1%. The concentration for half-maximal inhibition (IC50) (curve of compound) is 1590 nM and 6690 nM.
